The text below walks through data of publication PMC11796312, “Multifunctional, Fluorene‐Based Modulator of Cholinergic and GABAergic Neurotransmission as a Novel Drug Candidate for Palliative Treatment of Alzheimer's Disease” (Angewandte Chemie (International Ed. in English), 2024).

Entries after “also recorded” stand apart in the source; their conditions may differ.

As usually defined, the IC50 is the concentration that gives 50% inhibition. Higher therefore signals weaker potency in that assay.

The target of data set [1] is T1, eeAChE (Electrophorus electricus, UniProt O42275).
T1 construct: purchased Sigma-Aldrich
Nature of the data set: Cholinesterase inhibition, Ellman's protocol, eeAChE. In kind it is biochemical. The settings on record: read-out: eeAChE % inh. Background: In Ellman's method for cholinesterases, released thiocholine reacts with DTNB.
Protocol: In vitro pharmacological assays.
The in vitro inhibitory activity toward cholinesterases (eeAChE, eqBuChE,
The target compounds were tested for their inhibitory potency against cholinesterases using
Ellman’s protocol[32] modified for 96-well microplates.
The stock solutions of the
target compounds were prepared in DMSO and diluted with water, giving the desired final
concentrations. The enzymes were prepared as 5 U/mL aqueous stock solutions and diluted
(AChE or BuChE) were added to the reaction mixture in the wells, containing 25 μL of the
target compound (in case of blank samples – water or water/DMSO mixture), 200 μL of 0.1
M phosphate buffer (pH = 8.0) and 20 μL of 5,5'-dithiobis-(2-nitrobenzoic acid) DTNB
All those reagents were preincubated for 5 min at 25 °C for the reactions with the
animal enzymes (eeAChE or eqBuChe) and 36 °C for the human enzyme ( hBuChE) tests. The
enzymatic reaction was initiated by the addition of 20 μL of substrate acetylthiocholine iodide
using the EnSpire multimode microplate reader (PerkinElmer, Waltham, MA, USA). Target
compounds were tested at the screening concentrations of 10 μM or 1 µM for inhibitory
potencies towards animal cholinesterases or human enzyme, respectively. Percent of enzyme
inhibition was calculated based on the formula 100 -(S/B)x100, where S and B were the
respective enzyme activities with and without the test compound, respectively. Compounds
with the enzyme inhibitory activities at 10 μM better than 50% ( eeAChE or eqBuChe) and at
were based on the absorbance measured at seven different inhibitor concentrations, then
percentages of enzymes’ inhibition were plotted against the applied inhibitor concentrations
using nonlinear regression (GraphPad Prism 9; GraphPad Software, San Diego, CA, USA).
All the experiments were performed in
a %inh. at an inhibitor concentration of 10 µM

For data set [2], the target named is T2, mGAT4 (Mus musculus, UniProt P31650).
T2 sequence (P31650 1-627): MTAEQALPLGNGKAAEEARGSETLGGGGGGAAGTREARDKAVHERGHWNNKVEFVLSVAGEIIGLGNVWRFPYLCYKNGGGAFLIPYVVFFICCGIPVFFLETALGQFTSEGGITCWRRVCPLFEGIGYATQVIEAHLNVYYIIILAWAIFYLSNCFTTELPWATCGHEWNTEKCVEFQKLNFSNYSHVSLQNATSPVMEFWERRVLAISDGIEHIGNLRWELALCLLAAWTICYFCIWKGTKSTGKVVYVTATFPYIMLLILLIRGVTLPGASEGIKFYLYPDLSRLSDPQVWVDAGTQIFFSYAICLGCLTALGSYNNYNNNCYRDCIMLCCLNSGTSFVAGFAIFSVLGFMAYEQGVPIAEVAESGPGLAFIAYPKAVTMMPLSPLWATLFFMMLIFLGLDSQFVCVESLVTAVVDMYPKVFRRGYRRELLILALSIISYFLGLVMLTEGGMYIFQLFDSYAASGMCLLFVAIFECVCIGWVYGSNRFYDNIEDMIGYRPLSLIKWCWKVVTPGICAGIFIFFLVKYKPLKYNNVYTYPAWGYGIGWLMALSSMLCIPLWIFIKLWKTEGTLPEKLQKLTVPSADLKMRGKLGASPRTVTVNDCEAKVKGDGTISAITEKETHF
The experiment in a line: [3H]GABA uptake assay, mGAT4. In kind it is cell-based.

Data set [3] relates to SH-SY5Y cells. Nature of the data set: LC-MS determination of total MDA, SH-SY5Y. The settings on record: all time intervals. In kind it is cell-based, human.
Data set [4] concerns mice treated with scopolamine. The experiment in a line: Passive avoidance (PA) task, scopolamine-induced amnesia. In kind it is in vivo. The settings on record: 10 mg/kg i.p., vs scopolamine-treated group. Here is the method: Animals and housing conditions
In all pharmacodynamic in vivo experiments, except for the Barnes maze (BM) task, adult male Albino Swiss (CD-1) mice weighing between 18 and 22 g and purchased from the Animal Breeding Farm of the Faculty of Pharmacy, Jagiellonian University Medical College were used. In BM task, C57BL/6J mice of the same weight (Animalab, Poland) were used.
Animals were housed in cages (10 mice per cage) at a constant temperature of 22 ± 2 °C, humidity of 55 ± 10%, and a light/dark (12:12) cycle (lights on at 7 AM). Before the experiments, the animals had unlimited access to food and water. Specified conditions for the maintenance of mice were ensured throughout the experiments, including tree bedding (Transwior, Poland) and cage enrichment (tunnels, nesting material, wooden igloos, etc.). […]
doses for behavioral assays. Lower doses were also assessed if at least one of them was […]
On the first day, during the acquisition trial (a conditioning phase), the test compound 6, scopolamine, and vehicle were injected. […] The latency between opening the guillotine gate and the mouse entering the black compartment was measured for each mouse. On the next day, during the retention (drug-off) trial, the mice were placed again into the white compartment for a 30-s habituation period, and the latency to enter the black compartment was measured for each mouse. […]

T1 sequence (O42275 24-633): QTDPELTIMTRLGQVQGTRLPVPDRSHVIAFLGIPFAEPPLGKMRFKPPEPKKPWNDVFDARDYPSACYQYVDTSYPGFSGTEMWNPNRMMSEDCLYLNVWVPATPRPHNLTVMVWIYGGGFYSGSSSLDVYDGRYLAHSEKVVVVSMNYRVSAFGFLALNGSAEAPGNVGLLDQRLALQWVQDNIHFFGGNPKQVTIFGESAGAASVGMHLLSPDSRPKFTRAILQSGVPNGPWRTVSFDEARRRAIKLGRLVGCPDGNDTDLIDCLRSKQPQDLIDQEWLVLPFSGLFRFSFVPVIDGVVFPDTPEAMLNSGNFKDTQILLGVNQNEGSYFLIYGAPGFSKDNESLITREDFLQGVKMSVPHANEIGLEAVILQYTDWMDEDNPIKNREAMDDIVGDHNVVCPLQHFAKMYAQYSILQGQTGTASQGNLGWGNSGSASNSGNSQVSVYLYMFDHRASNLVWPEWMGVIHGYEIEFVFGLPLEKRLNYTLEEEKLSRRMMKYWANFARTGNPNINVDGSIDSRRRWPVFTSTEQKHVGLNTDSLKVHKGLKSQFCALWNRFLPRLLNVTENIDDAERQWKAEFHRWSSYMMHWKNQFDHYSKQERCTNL

Regarding `O[C@H](CNCC1CC1)[C@H](Cc1ccccc1)NC1c2ccccc2-c2ccccc21` [Compound 6], the inhibition at 10 µM in data set [1] was below 10%. In addition, in data set [2], the IC50 was determined as 7.76 ± 0.36 µM. In data set [3], the “increase in intracellular level of MDA” value was “no significant increase”. The “step-through latency in the retention trial” value in data set [4] is on record as “significant differences were observed in the retention trial; also recorded: prolonged step‐thorough latency”.
